Results reported in ChEMBL document CHEMBL2346515, “Discovery of 4-alkylamino-7-aryl-3-cyanoquinoline LRRK2 kinase inhibitors” (Bioorg Med Chem Lett, 2013).

How the values were obtained:
[1] = biological target: Protein kinase C beta type (Homo sapiens) (UniProt P05771); assay: Inhibition of PKCbeta1 (unknown origin) at 1 uM by single point assay
[2] = biological target: T1, Mitogen-activated protein kinase kinase kinase 7 (Homo sapiens) (UniProt O43318); assay: Inhibition of MAP3K7 (unknown origin) at 1 uM by single point assay
T1 sequence (whole entry): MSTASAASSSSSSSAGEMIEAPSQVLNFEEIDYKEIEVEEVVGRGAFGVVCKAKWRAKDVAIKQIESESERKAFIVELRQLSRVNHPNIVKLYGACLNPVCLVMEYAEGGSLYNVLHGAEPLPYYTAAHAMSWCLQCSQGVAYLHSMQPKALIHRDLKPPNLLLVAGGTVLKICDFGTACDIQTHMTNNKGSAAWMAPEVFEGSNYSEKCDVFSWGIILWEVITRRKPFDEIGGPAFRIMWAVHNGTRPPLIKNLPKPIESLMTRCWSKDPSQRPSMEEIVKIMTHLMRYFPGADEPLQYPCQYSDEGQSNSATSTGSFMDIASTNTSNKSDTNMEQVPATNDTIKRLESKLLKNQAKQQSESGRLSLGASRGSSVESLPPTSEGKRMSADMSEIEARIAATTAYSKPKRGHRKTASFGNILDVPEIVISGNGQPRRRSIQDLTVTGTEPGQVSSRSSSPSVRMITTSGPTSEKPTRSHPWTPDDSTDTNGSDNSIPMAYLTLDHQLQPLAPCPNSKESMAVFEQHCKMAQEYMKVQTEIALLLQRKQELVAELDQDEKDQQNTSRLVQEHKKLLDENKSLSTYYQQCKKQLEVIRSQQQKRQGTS

[3] = biological target: T2, Interleukin-1 receptor-associated kinase 4 (Homo sapiens) (UniProt Q9NWZ3); assay: Inhibition of IRAK4 (unknown origin) at 1 uM by single point assay
T2 sequence (whole entry): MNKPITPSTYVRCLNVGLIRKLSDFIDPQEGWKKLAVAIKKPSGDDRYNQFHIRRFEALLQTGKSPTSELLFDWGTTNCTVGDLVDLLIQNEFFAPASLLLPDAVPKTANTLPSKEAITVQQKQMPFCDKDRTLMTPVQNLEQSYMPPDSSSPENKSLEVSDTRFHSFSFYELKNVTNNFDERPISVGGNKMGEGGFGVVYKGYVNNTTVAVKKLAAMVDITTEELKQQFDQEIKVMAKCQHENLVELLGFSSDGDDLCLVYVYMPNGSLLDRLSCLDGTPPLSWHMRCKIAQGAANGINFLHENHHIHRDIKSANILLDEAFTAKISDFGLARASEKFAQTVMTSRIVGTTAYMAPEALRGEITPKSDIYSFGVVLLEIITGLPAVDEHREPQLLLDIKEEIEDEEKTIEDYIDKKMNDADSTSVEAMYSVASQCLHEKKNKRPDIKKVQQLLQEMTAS

[4] = biological target: Serine/threonine-protein kinase PLK1 (Homo sapiens) (UniProt P53350); assay: Inhibition of PLK1 (unknown origin) at 1 uM by single point assay
[5] = biological target: Serine/threonine-protein kinase PLK2 (Homo sapiens) (UniProt Q9NYY3); assay: Inhibition of PLK2 (unknown origin) at 1 uM by single point assay
[6] = biological target: Serine/threonine-protein kinase PAK 4 (Homo sapiens) (UniProt O96013); assay: Inhibition of PAK4 (unknown origin) at 1 uM by single point assay
[7] = biological target: Leucine-rich repeat serine/threonine-protein kinase 2 (Homo sapiens, UniProt Q5S007); assay: Inhibition of LRRK2 (unknown origin) at 1 uM by single point assay
[8] = biological target: Rho-associated protein kinase 2 (Homo sapiens) (UniProt O75116); assay: Inhibition of ROCK2 (unknown origin) at 1 uM by single point assay
[9] = biological target: Insulin receptor (Homo sapiens) (UniProt P06213); assay: Inhibition of INSR (unknown origin) at 1 uM by single point assay
[10] = biological target: Cyclin-dependent kinase 2/cyclin A (Homo sapiens) (UniProt P24941+P20248+P78396); assay: Inhibition of CDK2/cyclin A (unknown origin) at 1 uM by single point assay; assay type: protein-complex assay
[11] = biological target: Tyrosine-protein kinase SYK (Homo sapiens) (UniProt P43405); assay: Inhibition of SYK (unknown origin) at 1 uM by single point assay
[12] = biological target: T3, Serine/threonine-protein kinase 3 (Homo sapiens) (UniProt Q13188); assay: Inhibition of STK3 (unknown origin) at 1 uM by single point assay
T3 sequence (whole entry): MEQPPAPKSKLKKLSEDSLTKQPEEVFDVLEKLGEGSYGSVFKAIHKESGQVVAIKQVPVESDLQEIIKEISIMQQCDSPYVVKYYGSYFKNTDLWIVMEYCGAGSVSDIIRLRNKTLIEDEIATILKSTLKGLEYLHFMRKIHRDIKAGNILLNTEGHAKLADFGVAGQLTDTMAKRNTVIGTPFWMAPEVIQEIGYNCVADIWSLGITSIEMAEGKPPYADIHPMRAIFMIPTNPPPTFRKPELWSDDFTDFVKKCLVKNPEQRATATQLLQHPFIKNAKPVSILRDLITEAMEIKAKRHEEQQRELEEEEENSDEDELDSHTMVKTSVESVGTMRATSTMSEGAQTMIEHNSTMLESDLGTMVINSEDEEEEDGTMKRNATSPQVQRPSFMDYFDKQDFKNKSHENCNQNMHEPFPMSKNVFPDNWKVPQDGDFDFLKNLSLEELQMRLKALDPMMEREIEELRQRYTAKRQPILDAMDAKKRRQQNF

[13] = biological target: T4, Aurora kinase A (Homo sapiens) (UniProt O14965); assay: Inhibition of AURKA (unknown origin) at 1 uM by single point assay
T4 sequence (whole entry): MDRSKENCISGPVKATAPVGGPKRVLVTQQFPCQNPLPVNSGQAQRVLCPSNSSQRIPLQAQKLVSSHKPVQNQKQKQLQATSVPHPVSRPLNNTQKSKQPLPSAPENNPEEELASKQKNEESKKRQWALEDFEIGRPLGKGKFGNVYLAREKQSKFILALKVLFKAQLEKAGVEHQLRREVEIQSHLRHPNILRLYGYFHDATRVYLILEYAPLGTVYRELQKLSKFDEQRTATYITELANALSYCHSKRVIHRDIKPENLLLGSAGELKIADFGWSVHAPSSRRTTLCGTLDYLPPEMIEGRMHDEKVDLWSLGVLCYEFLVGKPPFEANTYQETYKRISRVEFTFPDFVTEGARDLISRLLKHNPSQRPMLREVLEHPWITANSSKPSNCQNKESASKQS

[14] = biological target: Dual specificity tyrosine-phosphorylation-regulated kinase 1B (Homo sapiens) (UniProt Q9Y463); assay: Inhibition of DYRK1B (unknown origin) at 1 uM by single point assay
[15] = biological target: Serine/threonine-protein kinase PLK3 (Homo sapiens) (UniProt Q9H4B4); assay: Inhibition of PLK3 (unknown origin) at 1 uM by single point assay
[16] = biological target: Protein-tyrosine kinase 2-beta (Homo sapiens) (UniProt Q14289); assay: Inhibition of PTK2B (unknown origin) at 1 uM by single point assay

Sequence of Protein kinase C beta type (Homo sapiens) (P05771 2-671 limits assumed): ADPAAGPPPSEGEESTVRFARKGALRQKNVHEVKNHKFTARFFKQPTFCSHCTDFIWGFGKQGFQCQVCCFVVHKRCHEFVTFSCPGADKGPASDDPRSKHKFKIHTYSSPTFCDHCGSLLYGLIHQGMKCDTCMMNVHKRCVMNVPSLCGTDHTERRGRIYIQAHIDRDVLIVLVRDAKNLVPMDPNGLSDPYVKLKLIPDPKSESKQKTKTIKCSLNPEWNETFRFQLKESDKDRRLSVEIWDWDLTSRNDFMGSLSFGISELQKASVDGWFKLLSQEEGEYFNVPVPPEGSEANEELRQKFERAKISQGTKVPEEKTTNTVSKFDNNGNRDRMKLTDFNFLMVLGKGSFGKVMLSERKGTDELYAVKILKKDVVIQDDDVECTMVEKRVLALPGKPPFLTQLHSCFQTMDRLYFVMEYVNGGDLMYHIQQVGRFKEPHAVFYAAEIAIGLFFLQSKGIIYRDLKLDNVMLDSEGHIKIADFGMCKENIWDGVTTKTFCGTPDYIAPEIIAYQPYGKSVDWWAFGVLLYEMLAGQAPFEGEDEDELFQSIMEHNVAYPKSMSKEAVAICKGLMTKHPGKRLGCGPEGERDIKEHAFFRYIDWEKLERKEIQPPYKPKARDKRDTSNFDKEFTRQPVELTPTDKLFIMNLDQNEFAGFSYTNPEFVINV
Sequence of Serine/threonine-protein kinase PLK3 (Homo sapiens) (Q9H4B4 whole entry, looked up): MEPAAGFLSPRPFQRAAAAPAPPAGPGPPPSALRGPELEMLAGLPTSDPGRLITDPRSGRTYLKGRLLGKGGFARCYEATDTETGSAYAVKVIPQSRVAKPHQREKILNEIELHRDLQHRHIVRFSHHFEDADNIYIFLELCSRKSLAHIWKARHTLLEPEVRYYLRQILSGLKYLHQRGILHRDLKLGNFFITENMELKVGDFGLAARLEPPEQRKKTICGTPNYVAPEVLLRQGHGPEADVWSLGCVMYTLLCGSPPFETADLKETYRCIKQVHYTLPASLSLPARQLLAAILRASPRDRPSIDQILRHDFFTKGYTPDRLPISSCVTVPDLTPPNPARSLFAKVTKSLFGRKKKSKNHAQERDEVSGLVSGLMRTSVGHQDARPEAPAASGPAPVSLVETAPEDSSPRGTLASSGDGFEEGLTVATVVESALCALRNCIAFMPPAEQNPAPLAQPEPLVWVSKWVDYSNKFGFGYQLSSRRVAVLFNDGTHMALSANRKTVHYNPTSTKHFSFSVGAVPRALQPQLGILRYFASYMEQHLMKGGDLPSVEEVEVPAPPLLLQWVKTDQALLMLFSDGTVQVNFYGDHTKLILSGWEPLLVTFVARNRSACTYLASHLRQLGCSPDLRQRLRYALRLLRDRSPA
Sequence of Serine/threonine-protein kinase PLK1 (Homo sapiens) (P53350 whole entry): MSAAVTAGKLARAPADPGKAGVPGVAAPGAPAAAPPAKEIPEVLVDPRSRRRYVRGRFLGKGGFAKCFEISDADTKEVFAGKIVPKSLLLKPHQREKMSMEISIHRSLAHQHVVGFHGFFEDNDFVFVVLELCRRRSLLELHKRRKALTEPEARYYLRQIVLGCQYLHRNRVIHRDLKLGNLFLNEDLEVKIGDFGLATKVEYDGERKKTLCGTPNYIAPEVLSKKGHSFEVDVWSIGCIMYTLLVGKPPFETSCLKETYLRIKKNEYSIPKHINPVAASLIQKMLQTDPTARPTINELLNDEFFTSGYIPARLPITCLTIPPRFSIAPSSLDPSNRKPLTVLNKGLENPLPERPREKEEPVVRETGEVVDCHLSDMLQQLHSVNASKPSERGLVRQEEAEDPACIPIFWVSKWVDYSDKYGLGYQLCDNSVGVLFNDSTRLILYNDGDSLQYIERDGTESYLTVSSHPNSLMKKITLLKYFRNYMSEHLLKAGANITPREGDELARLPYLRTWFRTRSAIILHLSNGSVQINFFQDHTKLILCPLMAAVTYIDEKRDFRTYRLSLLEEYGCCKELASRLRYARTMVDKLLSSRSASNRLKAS
Sequence of Rho-associated protein kinase 2 (Homo sapiens) (O75116 whole entry, looked up): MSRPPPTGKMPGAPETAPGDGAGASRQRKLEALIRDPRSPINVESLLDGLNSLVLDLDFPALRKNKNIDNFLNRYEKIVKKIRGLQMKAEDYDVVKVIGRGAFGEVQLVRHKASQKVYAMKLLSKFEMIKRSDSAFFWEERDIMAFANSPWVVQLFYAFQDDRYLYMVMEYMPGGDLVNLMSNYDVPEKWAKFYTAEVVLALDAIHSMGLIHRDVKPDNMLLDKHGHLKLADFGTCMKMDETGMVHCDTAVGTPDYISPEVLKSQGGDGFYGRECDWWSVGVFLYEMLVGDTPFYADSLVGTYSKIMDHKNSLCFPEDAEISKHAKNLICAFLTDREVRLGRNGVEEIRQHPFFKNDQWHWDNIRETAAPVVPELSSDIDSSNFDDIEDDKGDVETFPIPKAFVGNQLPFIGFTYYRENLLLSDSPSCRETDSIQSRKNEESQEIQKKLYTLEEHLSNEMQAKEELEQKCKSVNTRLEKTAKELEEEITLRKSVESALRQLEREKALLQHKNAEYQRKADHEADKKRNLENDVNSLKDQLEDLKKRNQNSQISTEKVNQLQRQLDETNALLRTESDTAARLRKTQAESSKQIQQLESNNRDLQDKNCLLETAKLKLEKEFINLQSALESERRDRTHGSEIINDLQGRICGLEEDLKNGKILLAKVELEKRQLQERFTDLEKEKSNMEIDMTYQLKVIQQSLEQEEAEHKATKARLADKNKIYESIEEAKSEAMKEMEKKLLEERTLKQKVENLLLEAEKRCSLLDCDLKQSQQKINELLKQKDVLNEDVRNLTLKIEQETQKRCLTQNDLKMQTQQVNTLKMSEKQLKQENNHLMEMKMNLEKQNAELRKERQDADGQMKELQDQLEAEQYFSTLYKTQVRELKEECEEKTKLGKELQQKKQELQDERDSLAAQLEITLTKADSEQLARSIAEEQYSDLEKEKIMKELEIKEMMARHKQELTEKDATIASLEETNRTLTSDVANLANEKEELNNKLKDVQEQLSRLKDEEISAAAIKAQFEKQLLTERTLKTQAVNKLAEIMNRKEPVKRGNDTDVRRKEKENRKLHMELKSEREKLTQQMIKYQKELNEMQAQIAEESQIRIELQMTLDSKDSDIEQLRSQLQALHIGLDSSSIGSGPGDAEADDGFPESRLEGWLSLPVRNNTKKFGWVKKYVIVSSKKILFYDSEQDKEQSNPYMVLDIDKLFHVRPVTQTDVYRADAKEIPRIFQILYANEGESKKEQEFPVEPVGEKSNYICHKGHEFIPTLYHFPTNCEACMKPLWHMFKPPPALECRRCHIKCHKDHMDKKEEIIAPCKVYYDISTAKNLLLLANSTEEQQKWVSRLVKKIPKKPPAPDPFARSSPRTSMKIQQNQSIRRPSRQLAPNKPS
Sequence of Insulin receptor (Homo sapiens) (P06213 28-758 limits assumed): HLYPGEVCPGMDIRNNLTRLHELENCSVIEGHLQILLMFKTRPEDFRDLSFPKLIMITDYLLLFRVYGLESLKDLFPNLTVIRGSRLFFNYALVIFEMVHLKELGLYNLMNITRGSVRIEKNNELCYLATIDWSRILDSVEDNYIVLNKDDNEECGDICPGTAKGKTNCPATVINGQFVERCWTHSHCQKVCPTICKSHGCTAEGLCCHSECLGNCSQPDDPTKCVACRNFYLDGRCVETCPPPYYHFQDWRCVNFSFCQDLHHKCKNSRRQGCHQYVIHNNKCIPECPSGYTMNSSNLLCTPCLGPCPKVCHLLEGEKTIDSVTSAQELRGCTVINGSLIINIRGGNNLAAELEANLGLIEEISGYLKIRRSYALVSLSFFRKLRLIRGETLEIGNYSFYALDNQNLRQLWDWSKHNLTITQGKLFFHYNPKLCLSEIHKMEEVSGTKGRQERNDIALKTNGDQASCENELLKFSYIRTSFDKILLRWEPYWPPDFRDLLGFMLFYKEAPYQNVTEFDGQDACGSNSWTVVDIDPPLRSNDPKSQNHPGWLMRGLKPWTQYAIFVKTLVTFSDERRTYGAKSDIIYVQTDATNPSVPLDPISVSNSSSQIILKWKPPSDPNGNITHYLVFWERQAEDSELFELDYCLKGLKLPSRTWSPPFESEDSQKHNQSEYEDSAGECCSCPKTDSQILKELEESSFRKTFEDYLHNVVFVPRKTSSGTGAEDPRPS
Sequence of Insulin receptor (Homo sapiens) (P06213 763-1382 limits assumed): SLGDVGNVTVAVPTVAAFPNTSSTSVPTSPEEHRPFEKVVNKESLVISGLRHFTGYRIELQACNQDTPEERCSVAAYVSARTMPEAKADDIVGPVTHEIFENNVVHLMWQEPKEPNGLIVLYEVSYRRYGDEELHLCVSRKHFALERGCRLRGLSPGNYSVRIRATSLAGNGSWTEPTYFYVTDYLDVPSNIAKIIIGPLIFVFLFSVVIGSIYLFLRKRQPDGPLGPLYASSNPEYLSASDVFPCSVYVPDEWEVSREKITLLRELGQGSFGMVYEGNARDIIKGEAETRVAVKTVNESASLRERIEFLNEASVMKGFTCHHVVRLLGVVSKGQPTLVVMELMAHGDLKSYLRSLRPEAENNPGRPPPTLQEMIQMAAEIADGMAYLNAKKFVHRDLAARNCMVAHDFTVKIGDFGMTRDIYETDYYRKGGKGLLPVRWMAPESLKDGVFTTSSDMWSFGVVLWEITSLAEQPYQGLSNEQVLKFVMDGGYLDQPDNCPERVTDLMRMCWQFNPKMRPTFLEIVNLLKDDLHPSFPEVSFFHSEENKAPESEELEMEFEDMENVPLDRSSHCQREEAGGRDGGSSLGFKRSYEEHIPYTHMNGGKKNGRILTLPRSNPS

Compound: CC(C)Nc1c(C#N)cnc2cc(-c3ccc(S(C)(=O)=O)cc3)ccc12
- inhibition [1]: 19%
- inhibition [2]: 7%
- inhibition [3]: 29%
- inhibition [4]: 20%
- inhibition [5]: 73%
- inhibition [6]: 15%
- inhibition [7]: 82%
- inhibition [8]: 12%
- inhibition [9]: 6%
- inhibition [10]: 12%
- inhibition [11]: 80%
- inhibition [12]: 29%
- inhibition [13]: 71%
- inhibition [14]: 49%
- inhibition [15]: 13%
- inhibition [16]: 33%

Compound: CC(C)Nc1c(C#N)cnc2cc(-c3cnn(C)c3)ccc12
- inhibition [1]: -7%
- inhibition [2]: 51%
- inhibition [3]: 68%
- inhibition [4]: 24%
- inhibition [5]: 89%
- inhibition [6]: 41%
- inhibition [7]: 96%
- inhibition [8]: 14%
- inhibition [9]: 1%
- inhibition [10]: 5%
- inhibition [11]: 92%
- inhibition [12]: 15%
- inhibition [13]: 89%
- inhibition [14]: 49%
- inhibition [15]: 12%
- inhibition [16]: 12%
